Legend:
AR / CBP ternary complex = experiment: Ternary complex formation assay (sandwich ELISA, AR capture / CBP detection) in VCaP cell lysates; type: cell-based; details: 1.5 hours treatment, sandwich ELISA (AR capture, CBP or p300 detection)
Summary of the method: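 VCaP cells (50K/well, 5% charcoal-stripped FBS, ≥3 days) treated with bifunctional compound for 1.5 h, then lysed 30 min at 4 °C. AR captured on anti-AR (AR 441) plates; bound CBP or p300 detected by rabbit mAb plus HRP secondary. QuantaRed chemifluorescence read at ex 570/em 585, immediately and at 5 and 15 min.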

VCaP cells = experiment: VCaP growth inhibition assay; type: cell-based; details: 30 pM R1881, 9 days, CTG
Summary of the method: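 VCaP cells in phenol red-free DMEM/5% CSS, pre-incubated 72 h, then stimulated with R1881 (final 30 pM) and treated with 1:5 serial dilutions (final 100 nM to 10 fM) for 9 days at 37 °C. Viability by CellTiter-Glo luminescence; IC50 from 4-parameter logistic fit of RLU vs concentration.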

EC50 (AR / CBP ternary complex) | IC50 (VCaP cells) | Compound
< 1 nM | 0.1 to 1 nM | CC(=O)N1CCc2c(c(N3CCCc4cc(-c5cnn(C)c5)c(C)cc43)nn2C2CCN(CC3CCN(c4ncc(C(=O)NC5C(C)(C)C(Oc6ccc(C#N)c(C)c6)C5(C)C)cn4)CC3(C)C)CC2)C1 (stereo not drawn) [Compound 466, 2-[4-[[4-[5-acetyl-3-[7-methyl-6-(1-methylpyrazol-4-yl)-3,4-dihydro-2H-quinolin-1-yl]-6,7-dihydro-4H-pyrazolo[4,3-c]pyridin-1-yl]-1-piperidyl]methyl]-3,3-dimethyl-1-piperidyl]-N-[3-(4-cyano-3-methyl-phenoxy)-2,2,4,4-tetramethyl-cyclobutyl]pyrimidine-5-carboxamide]
< 1 nM | ≤ 0.1 nM | CC(=O)N1CCc2c(c(-c3cccc4cc(-c5cnn(C)c5)ncc34)nn2C2CCN(CC3CCN(c4ncc(C(=O)NC5C(C)(C)C(Oc6ccc(C#N)c(Cl)c6)C5(C)C)cn4)CC3)CC2)C1 (stereo not drawn) [Compound 136, 2-[4-[[4-[5-acetyl-3-[3-(1-methylpyrazol-4-yl)-8-isoquinolyl]-6,7-dihydro-4H-pyrazolo[4,3-c]pyridin-1-yl]-1-piperidyl]methyl]-1-piperidyl]-N-[3-(3-chloro-4-cyano-phenoxy)-2,2,4,4-tetramethyl-cyclobutyl]pyrimidine-5-carboxamide]
< 1 nM | ≤ 0.1 nM | COC1CN(c2ncc(C(=O)NC3C(C)(C)C(Oc4ccc(C#N)c(Cl)c4)C3(C)C)cn2)CCC1CN1CCC(n2nc(N3CCCc4cc(-c5cnn(C)c5)c(C(F)F)cc43)c3c2CCN(C(C)=O)C3)CC1 (stereo not drawn) [Compound 329, 2-[4-[[4-[5-acetyl-3-[7-(difluoromethyl)-6-(1-methylpyrazol-4-yl)-3,4-dihydro-2H-quinolin-1-yl]-6,7-dihydro-4H-pyrazolo[4,3-c]pyridin-1-yl]-1-piperidyl]methyl]-3-methoxy-1-piperidyl]-N-[3-(3-chloro-4-cyano-phenoxy)-2,2,4,4-tetramethyl-cyclobutyl]pyrimidine-5-carboxamide]
< 1 nM | 0.1 to 1 nM | CC(=O)N1CCc2c(c(N3CCCc4cc(-c5cnn(C)c5)c(C)cc43)nn2C2CCN(CC3CCN(c4ncc(C(=O)NC5C(C)(C)C(Oc6ccc(C#N)c(Cl)c6)C5(C)C)cn4)CC3(C)C)CC2)C1 (stereo not drawn) [Compound 446, 2-[4-[[4-[5-acetyl-3-[7-methyl-6-(1-methylpyrazol-4-yl)-3,4-dihydro-2H-quinolin-1-yl]-6,7-dihydro-4H-pyrazolo[4,3-c]pyridin-1-yl]-1-piperidyl]methyl]-3,3-dimethyl-1-piperidyl]-N-[3-(3-chloro-4-cyano-phenoxy)-2,2,4,4-tetramethyl-cyclobutyl]pyrimidine-5-carboxamide]
< 1 nM | ≤ 0.1 nM | COc1cc(OC2C(C)(C)C(NC(=O)c3ccc(N4CCN(CC5CCC(n6nc(N7CCCc8cc(-c9cnn(C)c9)c(C(F)F)cc87)c7c6CCN(C(C)=O)C7)CC5)CC4)cc3)C2(C)C)ccc1C#N (stereo not drawn) [Compound 319, 4-[4-[[4-[5-acetyl-3-[7-(difluoromethyl)-6-(1-methylpyrazol-4-yl)-3,4-dihydro-2H-quinolin-1-yl]-6,7-dihydro-4H-pyrazolo[4,3-c]pyridin-1-yl]cyclohexyl]methyl]piperazin-1-yl]-N-[3-(4-cyano-3-methoxy-phenoxy)-2,2,4,4-tetramethyl-cyclobutyl]benzamide]
< 1 nM | 0.1 to 1 nM | COc1cc(OC2C(C)(C)C(NC(=O)c3ccc(N4CCC(CN5CCC(n6nc(N7CCCc8cc(-c9cnn(C)c9)c(C(F)F)cc87)c7c6CCN(C(C)=O)C7)CC5)(OC)CC4)cc3)C2(C)C)ccc1C#N (stereo not drawn) [Compound 264, 4-[4-[[4-[5-acetyl-3-[7-(difluoromethyl)-6-(1-methylpyrazol-4-yl)-3,4-dihydro-2H-quinolin-1-yl]-6,7-dihydro-4H-pyrazolo[4,3-c]pyridin-1-yl]-1-piperidyl]methyl]-4-methoxy-1-piperidyl]-N-[3-(4-cyano-3-methoxy-phenoxy)-2,2,4,4-tetramethyl-cyclobutyl]benzamide]
< 1 nM | > 100 nM | Cn1c(=O)sc2ccc(-c3cccc4cc(-c5ccc(CCC6CCN(c7ncc(C(=O)NC8C(C)(C)C(Oc9ccc(C#N)c(Cl)c9)C8(C)C)cn7)CC6)nc5)ncc34)cc21 (stereo not drawn) [Compound 235, N-[3-(3-chloro-4-cyano-phenoxy)-2,2,4,4-tetramethyl-cyclobutyl]-2-[4-[2-[5-[8-(3-methyl-2-oxo-1,3-benzothiazol-5-yl)-3-isoquinolyl]-2-pyridyl]ethyl]-1-piperidyl]pyrimidine-5-carboxamide]
< 1 nM | 0.1 to 1 nM | CC(=O)N1CCc2c(c(-c3cccc4cc(-c5cnn(CCC6CC7(C6)CN(c6ncc(C(=O)NC8C(C)(C)C(Oc9ccc(C#N)c(Cl)c9)C8(C)C)cn6)C7)c5)ncc34)nn2C2CCOCC2)C1 (stereo not drawn) [Compound 225, 2-[6-[2-[4-[8-(5-acetyl-1-tetrahydropyran-4-yl-6,7-dihydro-4H-pyrazolo[4,3-c]pyridin-3-yl)-3-isoquinolyl]pyrazol-1-yl]ethyl]-2-azaspiro[3.3]heptan-2-yl]-N-[3-(3-chloro-4-cyano-phenoxy)-2,2,4,4-tetramethyl-cyclobutyl]pyrimidine-5-carboxamide]
< 1 nM | > 100 nM | CC(=O)N1CCc2c(c(Nc3ccc(-c4cnn(C)c4)cc3F)nn2C2CCN(C(=O)COC3CCN(c4ncc(C(=O)NC5C(C)(C)C(Oc6ccc(C#N)c(Cl)c6)C5(C)C)cn4)CC3)CC2)C1 (stereo not drawn) [Compound 177, 2-[4-[2-[4-[5-acetyl-3-[2-fluoro-4-(1-methylpyrazol-4-yl)anilino]-6,7-dihydro-4H-pyrazolo[4,3-c]pyridin-1-yl]-1-piperidyl]-2-oxo-ethoxy]-1-piperidyl]-N-[3-(3-chloro-4-cyano-phenoxy)-2,2,4,4-tetramethyl-cyclobutyl]pyrimidine-5-carboxamide]
< 1 nM | 0.1 to 1 nM | COc1cc(OC2C(C)(C)C(NC(=O)c3ccc(N4CCN(CCn5cc(-c6cc7cccc(-c8nn(C9CCOCC9)c9c8CN(C(C)=O)CC9)c7cn6)cn5)CC4)cc3)C2(C)C)ccc1C#N (stereo not drawn) [Compound 249, 4-[4-[2-[4-[8-(5-acetyl-1-tetrahydropyran-4-yl-6,7-dihydro-4H-pyrazolo[4,3-c]pyridin-3-yl)-3-isoquinolyl]pyrazol-1-yl]ethyl]piperazin-1-yl]-N-[3-(4-cyano-3-methoxy-phenoxy)-2,2,4,4-tetramethyl-cyclobutyl]benzamide]
< 1 nM | ≤ 0.1 nM | COc1cc(OC2C(C)(C)C(NC(=O)c3ccc(N4CCC(n5ncc6c5CCC(n5nc(N7CCCc8cc(-c9cnn(C)c9)c(C(F)F)cc87)c7c5CCN(C(C)=O)C7)C6)CC4)cc3)C2(C)C)ccc1C#N (stereo not drawn) [Compound 265, 4-[4-[5-[5-acetyl-3-[7-(difluoromethyl)-6-(1-methylpyrazol-4-yl)-3,4-dihydro-2H-quinolin-1-yl]-6,7-dihydro-4H-pyrazolo[4,3-c]pyridin-1-yl]-4,5,6,7-tetrahydroindazol-1-yl]-1-piperidyl]-N-[3-(4-cyano-3-methoxy-phenoxy)-2,2,4,4-tetramethyl-cyclobutyl]benzamide]
> 100 nM | ≤ 0.1 nM | CC(=O)N1CCc2c(c(-c3cccc4cc(-c5cnn(CCC6CCN(c7ncc(C(=O)NC8C(C)(C)C(Oc9ccc(C#N)c(Cl)c9)C8(C)C)cn7)CC6)c5)ncc34)nn2C2CCOCC2)C1 (stereo not drawn) [Compound 139, 2-[4-[2-[4-[8-(5-acetyl-1-tetrahydropyran-4-yl-6,7-dihydro-4H-pyrazolo[4,3-c]pyridin-3-yl)-3-isoquinolyl]pyrazol-1-yl]ethyl]-1-piperidyl]-N-[3-(3-chloro-4-cyano-phenoxy)-2,2,4,4-tetramethyl-cyclobutyl]pyrimidine-5-carboxamide]
< 1 nM | 0.1 to 1 nM | CC(=O)N1CCc2c(c(N3CCCc4cc(-c5cnn(C)c5)c(C)cc43)nn2C2CCN(C3CCC4(CC3)CN(c3ncc(C(=O)NC5C(C)(C)C(Oc6ccc(C#N)c(C)c6)C5(C)C)cn3)C4)CC2)C1 (stereo not drawn) [Compound 471, 2-[7-[4-[5-acetyl-3-[7-methyl-6-(1-methylpyrazol-4-yl)-3,4-dihydro-2H-quinolin-1-yl]-6,7-dihydro-4H-pyrazolo[4,3-c]pyridin-1-yl]-1-piperidyl]-2-azaspiro[3.5]nonan-2-yl]-N-[3-(4-cyano-3-methyl-phenoxy)-2,2,4,4-tetramethyl-cyclobutyl]pyrimidine-5-carboxamide]
< 1 nM | 0.1 to 1 nM | CC(=O)N1CCc2c(c(N3CCCc4cc(-c5cnn(C)c5)c(C(F)(F)F)cc43)nn2C2CCN(CC3CCN(c4ncc(C(=O)NC5C(C)(C)C(Oc6ccc(C#N)c(Cl)c6)C5(C)C)cn4)CC3)CC2)C1 (stereo not drawn) [Compound 27, 2-[4-[[4-[5-acetyl-3-[6-(1-methylpyrazol-4-yl)-7-(trifluoromethyl)-3,4-dihydro-2H-quinolin-1-yl]-6,7-dihydro-4H-pyrazolo[4,3-c]pyridin-1-yl]-1-piperidyl]methyl]-1-piperidyl]-N-[3-(3-chloro-4-cyano-phenoxy)-2,2,4,4-tetramethyl-cyclobutyl]pyrimidine-5-carboxamide]

Compound | EC50 (AR / CBP ternary complex) | IC50 (VCaP cells)
COC(=O)N1c2ccc3c(nc(Cc4ccccc4)n3[C@@H]3CCC[C@@H](C(=O)N4CCN(c5ncc(C(=O)NC6C(C)(C)C(Oc7ccc(C#N)c(Cl)c7)C6(C)C)cn5)CC4)C3)c2CC[C@@H]1C (stereo partly drawn) [Compound 127, methyl (7S)-2-benzyl-3-[(1R,3R)-3-[4-[5-[[3-(3-chloro-4-cyano-phenoxy)-2,2,4,4-tetramethyl-cyclobutyl]carbamoyl]pyrimidin-2-yl]piperazine-1-carbonyl]cyclohexyl]-7-methyl-8,9-dihydro-7H-imidazo[4,5-f]quinoline-6-carboxylate] | < 1 nM | ≤ 0.1 nM

From US20250129070A1, “BIFUNCTIONAL ANDROGEN RECEPTOR COMPOUNDS” (priority 2023, published 2025)
